Assay results: ChEMBL document CHEMBL3044928, “Synthesis of 2,4-dihalogenofluorobenzenes and their antimicrobial and antifungal activity studies” (2007)
In brackets after ≈: the same amount, converted by molar mass. Activity calls are given as the source filed them. The rule behind the calls is not given here.

Experiments:
Type in all cases: functional
[1] = tested on: Micrococcus flavus; test: Antibacterial activity against Micrococcus flavus clinical isolate at 5 mg/ml after 24 hr by disk diffusion method; conditions: read-out: DIZ
[2] = tested on: Morganella morganii; test: Antibacterial activity against Morganella morganii clinical isolate at 5 mg/ml after 24 hr by disk diffusion method; conditions: for zone of inhibition at 5000 µg/mL: read-out: DIZ
[3] = tested on: Escherichia coli; test: Antibacterial activity against Escherichia coli ATCC 27853 at 5 mg/ml after 24 hr by disk diffusion method; conditions: for zone of inhibition at 5000 µg/mL: read-out: DIZ
[4] = tested on: Candida albicans; test: Antifungal activity against Candida albicans clinical isolate by NCCLS broth microdilution method
[5] = tested on: Bacillus cereus; test: Antibacterial activity against Bacillus cereus ATCC 6633 by NCCLS broth microdilution method
[6] = tested on: Staphylococcus aureus; test: Antibacterial activity against Staphylococcus aureus ATCC 25923 by NCCLS broth microdilution method
[7] = tested on: Candida albicans; test: Antifungal activity against Candida albicans clinical isolate at 5 mg/ml after 48 hr by disk diffusion method; conditions: read-out: DIZ
[8] = tested on: Bacillus cereus; test: Antibacterial activity against Bacillus cereus ATCC 6633 at 5 mg/ml after 24 hr by disk diffusion method; conditions: ATCC 6633, 24 h, read-out: DIZ
[9] = tested on: Staphylococcus aureus; test: Antibacterial activity against Staphylococcus aureus ATCC 25923 at 5 mg/ml after 24 hr by disk diffusion method; conditions: for zone of inhibition at 5000 µg/mL: ATCC 25923, 24 h, read-out: DIZ
[10] = tested on: Micrococcus flavus; test: Antibacterial activity against Micrococcus flavus clinical isolate by NCCLS broth microdilution method
[11] = tested on: Morganella morganii; test: Antibacterial activity against Morganella morganii clinical isolate by NCCLS broth microdilution method
[12] = tested on: Escherichia coli; test: Antibacterial activity against Escherichia coli ATCC 27853 by NCCLS broth microdilution method
[13] = tested on: Morganella morganii; test: Antibacterial activity against Morganella morganii clinical isolate at 30 ug/disk after 24 hr by disk diffusion method; conditions: read-out: DIZ
[14] = tested on: Micrococcus flavus; test: Antibacterial activity against Micrococcus flavus clinical isolate at 30 ug/disk after 24 hr by disk diffusion method; conditions: read-out: DIZ
[15] = tested on: Bacillus cereus; test: Antibacterial activity against Bacillus cereus ATCC 6633 at 1 ug/disk after 24 hr by disk diffusion method; conditions: ATCC 6633, 24 h, read-out: DIZ
[16] = tested on: Candida albicans; test: Antifungal activity against Candida albicans clinical isolate at 50 ug/disk after 48 hr by disk diffusion method; conditions: read-out: DIZ
[17] = tested on: Staphylococcus aureus; test: Antibacterial activity against Staphylococcus aureus ATCC 25923 at 10 ug/disc after 24 hr by disk diffusion method; conditions: ATCC 25923, 24 h, read-out: DIZ
[18] = tested on: Escherichia coli; test: Antibacterial activity against Escherichia coli ATCC 27853 at 10 U/disk after 24 hr by disk diffusion method
[19] = tested on: Bacillus cereus; test: Ratio of compound to oxacillin activity against Bacillus cereus ATCC 6633
[20] = tested on: Candida albicans; test: Ratio of compound to ketoconazole activity against Candida albicans
[21] = tested on: Micrococcus flavus; test: Ratio of compound to tetracycline activity against Micrococcus flavus clinical isolate

MIC [4] [µg/mL] | MIC [5] [µg/mL] | MIC [6] [µg/mL] | MIC [10] [µg/mL] | MIC [11] [µg/mL] | MIC [12] [µg/mL] | SMILES | zone of inhibition at 5000 µg/mL [1] [mm] | zone of inhibition at 5000 µg/mL [3] [mm] | zone of inhibition at 5000 µg/mL [7] [mm] | zone of inhibition at 5000 µg/mL [8] [mm] | zone of inhibition at 5000 µg/mL [9] [mm] | other results
2500 (≈ 11.9 mM) | 2000 (≈ 9.55 mM) | 2500 (≈ 11.9 mM) | 2500 (≈ 11.9 mM) | 2500 (≈ 11.9 mM) | 3000 (≈ 14.3 mM) | Fc1cc(Cl)ccc1Br | 13 | 13 | 11 | 17 | 14 | diameter of the inhibition zone (DIZ) [2]: inactive
– | – | – | – | – | – | O=C(N[C@H](CO)[C@H](O)c1ccc([N+](=O)[O-])cc1)C(Cl)Cl [CHLORAMPHENICOL] | – | – | – | – | – | zone of inhibition at 30 µg/disc [13]: 15 mm
– | – | – | – | – | – | CN(C)[C@@H]1C(O)=C(C(N)=O)C(=O)[C@@]2(O)C(O)=C3C(=O)c4c(O)cccc4[C@@](C)(O)[C@H]3C[C@@H]12 [TETRACYCLINE] | – | – | – | – | – | zone of inhibition at 30 µg/disc [14]: 20 mm
– | – | – | – | – | – | Cc1onc(-c2ccccc2)c1C(=O)N[C@@H]1C(=O)N2[C@@H]1SC(C)(C)[C@@H]2C(=O)O [OXACILLIN] | – | – | – | – | – | zone of inhibition at 1 µg/disc [15]: 9 mm
– | – | – | – | – | – | CC(=O)N1CCN(c2ccc(OCC3COC(Cn4ccnc4)(c4ccc(Cl)cc4Cl)O3)cc2)CC1 (stereo unspecified) [KETOCONAZOLE] | – | – | – | – | – | zone of inhibition at 50 µg/disc [16]: 16 mm
– | – | – | – | – | – | CC1(C)S[C@@H]2[C@H](NC(=O)[C@H](N)c3ccccc3)C(=O)N2[C@H]1C(=O)O [AMPICILLIN] | – | – | – | – | – | zone of inhibition at 10 µg/disc [17]: 9 mm
2000 (≈ 12.1 mM) | 2000 (≈ 12.1 mM) | 2500 (≈ 15.2 mM) | 2500 (≈ 15.2 mM) | 2500 (≈ 15.2 mM) | 3000 (≈ 18.2 mM) | Fc1cc(Cl)ccc1Cl [2,5-DICHLOROFLUOROBENZENE] | 14 | 11 | 17 | 16 | 15 | zone of inhibition at 5000 µg/mL [2]: 12 mm
2500 (≈ 9.75 mM) | 2000 (≈ 7.8 mM) | 2000 (≈ 7.8 mM) | 1500 (≈ 5.85 mM) | 1500 (≈ 5.85 mM) | 3000 (≈ 11.7 mM) | Fc1ccc(Cl)cc1I | 20 | 10 | 14 | 16 | 13 | zone of inhibition at 5000 µg/mL [2]: 10 mm
2500 (≈ 9.75 mM) | 2000 (≈ 7.8 mM) | 2500 (≈ 9.75 mM) | 2500 (≈ 9.75 mM) | 2500 (≈ 9.75 mM) | 2500 (≈ 9.75 mM) | Fc1cc(Cl)ccc1I | 11 | 11 | 14 | 13 | 12 | zone of inhibition at 5000 µg/mL [2]: 13 mm
– | – | – | – | – | – | CC1(C)S[C@@H]2[C@H](NC(=O)Cc3ccccc3)C(=O)N2[C@H]1C(=O)O [PENICILLIN G] | – | – | – | – | – | diameter of the inhibition zone (DIZ) [18]: 19 mm
2500 (≈ 11.9 mM) | 2500 (≈ 11.9 mM) | 2500 (≈ 11.9 mM) | 2500 (≈ 11.9 mM) | 2500 (≈ 11.9 mM) | 2500 (≈ 11.9 mM) | Fc1ccc(Cl)cc1Br | 32 | – | 30 | 15 | – | diameter of the inhibition zone (DIZ) [2]: inactive; diameter of the inhibition zone (DIZ) [3]: inactive; Ratio [19]: 2; Ratio [20]: 2; Ratio [21]: 2; diameter of the inhibition zone (DIZ) [9]: inactive

SMILES | MIC [4] [µg/mL] | MIC [5] [µg/mL] | MIC [6] [µg/mL] | MIC [10] [µg/mL] | MIC [11] [µg/mL] | MIC [12] [µg/mL] | zone of inhibition at 5000 µg/mL [1] [mm] | zone of inhibition at 5000 µg/mL [3] [mm] | zone of inhibition at 5000 µg/mL [7] [mm] | zone of inhibition at 5000 µg/mL [8] [mm] | zone of inhibition at 5000 µg/mL [9] [mm] | other results
Fc1ccc(Cl)cc1Cl [2,4-DICHLOROFLUOROBENZENE] | 1 (≈ 0.00606 mM) | 1500 (≈ 9.09 mM) | 1200 (≈ 7.27 mM) | 1500 (≈ 9.09 mM) | 1500 (≈ 9.09 mM) | 1200 (≈ 7.27 mM) | 11 | 12 | 12 | 19 | 15 | diameter of the inhibition zone (DIZ) [2]: inactive
